Measurements taken from ChEMBL document CHEMBL1155384 (Bioorg Med Chem Lett, 2010).

Key:
[1] = Antiproliferative activity against human RS4:11 cells having FLT3-ITD mutation after 72 hrs by WST8 assay; type: functional, cell-based; conditions: RS4-11, 72 h
[2] = molecular target: T1, Receptor-type tyrosine-protein kinase FLT3 (Homo sapiens, UniProt P36888); experiment: Inhibition of FLT3 by HTRF assay
T1 sequence (P36888 whole entry): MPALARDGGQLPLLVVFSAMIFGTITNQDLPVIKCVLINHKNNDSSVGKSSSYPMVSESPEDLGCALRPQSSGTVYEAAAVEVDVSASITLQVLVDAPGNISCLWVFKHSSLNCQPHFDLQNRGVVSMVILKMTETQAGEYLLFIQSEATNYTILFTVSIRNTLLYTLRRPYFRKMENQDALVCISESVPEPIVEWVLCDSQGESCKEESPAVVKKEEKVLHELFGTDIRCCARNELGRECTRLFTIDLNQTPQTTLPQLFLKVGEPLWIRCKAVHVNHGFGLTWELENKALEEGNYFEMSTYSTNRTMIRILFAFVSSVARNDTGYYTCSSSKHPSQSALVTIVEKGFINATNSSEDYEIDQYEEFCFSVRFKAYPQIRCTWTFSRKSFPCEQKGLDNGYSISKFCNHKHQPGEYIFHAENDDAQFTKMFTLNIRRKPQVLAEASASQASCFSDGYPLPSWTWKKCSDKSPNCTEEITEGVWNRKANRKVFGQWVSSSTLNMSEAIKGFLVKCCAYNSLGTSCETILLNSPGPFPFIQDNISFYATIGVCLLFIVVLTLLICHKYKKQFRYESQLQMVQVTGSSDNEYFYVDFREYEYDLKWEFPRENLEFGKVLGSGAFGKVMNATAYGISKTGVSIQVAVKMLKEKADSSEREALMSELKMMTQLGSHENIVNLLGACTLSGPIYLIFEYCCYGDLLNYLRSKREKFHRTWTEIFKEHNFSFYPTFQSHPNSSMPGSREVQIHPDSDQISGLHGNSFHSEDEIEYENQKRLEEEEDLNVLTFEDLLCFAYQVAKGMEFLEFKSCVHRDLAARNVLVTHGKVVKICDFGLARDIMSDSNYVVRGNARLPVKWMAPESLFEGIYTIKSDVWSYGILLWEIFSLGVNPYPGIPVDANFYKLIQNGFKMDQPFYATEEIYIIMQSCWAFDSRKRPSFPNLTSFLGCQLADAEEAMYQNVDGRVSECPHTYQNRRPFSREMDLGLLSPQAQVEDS

MV4-11 [3] = experiment: Antiproliferative activity against […] FLT3 expressing human MV411 cells after 72 hrs by WST8 assay; type: functional, cell-based; conditions: MV4-11, 72 h
[4] = molecular target: Vascular endothelial growth factor receptor 2 (Homo sapiens, UniProt P35968); experiment: Inhibition of VEGFR2 by HTRF assay
[5] = molecular target: Hepatocyte growth factor receptor (Homo sapiens, UniProt P08581); experiment: Inhibition of Met by HTRF assay
[6] = molecular target: Macrophage-stimulating protein receptor (Homo sapiens, UniProt Q04912); experiment: Inhibition of Ron by HTRF assay
[7] = molecular target: Epidermal growth factor receptor (Homo sapiens, UniProt P00533); experiment: Inhibition of EGFR by HTRF assay
Insulin receptor = Insulin receptor (Homo sapiens, UniProt P06213); experiment: Inhibition of insulin receptor by HTRF assay
Aurora kinase A = molecular target: T2, Aurora kinase A (Homo sapiens, UniProt O14965); experiment: Inhibition of Aurora A by HTRF assay
T2 sequence (O14965 whole entry): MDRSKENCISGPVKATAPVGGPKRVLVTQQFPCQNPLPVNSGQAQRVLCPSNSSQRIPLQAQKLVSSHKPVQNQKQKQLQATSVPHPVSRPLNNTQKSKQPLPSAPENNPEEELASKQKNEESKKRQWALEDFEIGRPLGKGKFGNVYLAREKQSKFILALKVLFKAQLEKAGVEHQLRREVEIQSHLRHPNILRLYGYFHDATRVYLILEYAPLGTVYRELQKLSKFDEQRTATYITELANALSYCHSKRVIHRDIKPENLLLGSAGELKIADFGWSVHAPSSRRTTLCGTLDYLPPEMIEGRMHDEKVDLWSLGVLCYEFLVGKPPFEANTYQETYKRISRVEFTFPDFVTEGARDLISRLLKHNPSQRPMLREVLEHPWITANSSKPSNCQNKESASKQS

MV4-11 [8] = experiment: Cell cycle arrest in human MV411 cells assessed as accumulation at G0/G1 phase at 0.01 uM after 48 hrs by propidium iodide assay; type: functional
MV4-11 [9] = experiment: Cell cycle arrest in human MV411 cells assessed as accumulation at G2/M phase at 0.01 uM after 48 hrs by propidium iodide assay; type: functional
MV4-11 [10] = experiment: Cell cycle arrest in human MV411 cells assessed as accumulation at S phase at 0.01 uM after 48 hrs by propidium iodide assay; type: functional
MV4-11 [11] = experiment: Cell cycle arrest in human MV411 cells assessed as accumulation at sub-G1 phase at 0.01 uM after 48 hrs by propidium iodide assay; type: functional
MV4-11 [12] = experiment: Cell cycle arrest in human MV411 cells assessed as accumulation at G0/G1 phase at 1 uM after 48 hrs by propidium iodide assay; type: functional
MV4-11 [13] = experiment: Cell cycle arrest in human MV411 cells assessed as accumulation at G0/G1 phase at 0.1 uM after 48 hrs by propidium iodide assay; type: functional
MV4-11 [14] = experiment: Cell cycle arrest in human MV411 cells assessed as accumulation at G2/M phase at 0.1 uM after 48 hrs by propidium iodide assay; type: functional
MV4-11 [15] = experiment: Cell cycle arrest in human MV411 cells assessed as accumulation at S phase at 0.1 uM after 48 hrs by propidium iodide assay; type: functional
MV4-11 [16] = experiment: Cell cycle arrest in human MV411 cells assessed as accumulation at sub-G1 phase at 0.1 uM after 48 hrs by propidium iodide assay; type: functional
MV4-11 [17] = experiment: Cell cycle arrest in human MV411 cells assessed as accumulation at G2/M phase at 1 uM after 48 hrs by propidium iodide assay; type: functional
MV4-11 [18] = experiment: Cell cycle arrest in human MV411 cells assessed as accumulation at S phase at 1 uM after 48 hrs by propidium iodide assay; type: functional
MV4-11 [19] = experiment: Cell cycle arrest in human MV411 cells assessed as accumulation at sub-G1 phase at 1 uM after 48 hrs by propidium iodide assay; type: functional

Sequence of Vascular endothelial growth factor receptor 2 (P35968 whole entry): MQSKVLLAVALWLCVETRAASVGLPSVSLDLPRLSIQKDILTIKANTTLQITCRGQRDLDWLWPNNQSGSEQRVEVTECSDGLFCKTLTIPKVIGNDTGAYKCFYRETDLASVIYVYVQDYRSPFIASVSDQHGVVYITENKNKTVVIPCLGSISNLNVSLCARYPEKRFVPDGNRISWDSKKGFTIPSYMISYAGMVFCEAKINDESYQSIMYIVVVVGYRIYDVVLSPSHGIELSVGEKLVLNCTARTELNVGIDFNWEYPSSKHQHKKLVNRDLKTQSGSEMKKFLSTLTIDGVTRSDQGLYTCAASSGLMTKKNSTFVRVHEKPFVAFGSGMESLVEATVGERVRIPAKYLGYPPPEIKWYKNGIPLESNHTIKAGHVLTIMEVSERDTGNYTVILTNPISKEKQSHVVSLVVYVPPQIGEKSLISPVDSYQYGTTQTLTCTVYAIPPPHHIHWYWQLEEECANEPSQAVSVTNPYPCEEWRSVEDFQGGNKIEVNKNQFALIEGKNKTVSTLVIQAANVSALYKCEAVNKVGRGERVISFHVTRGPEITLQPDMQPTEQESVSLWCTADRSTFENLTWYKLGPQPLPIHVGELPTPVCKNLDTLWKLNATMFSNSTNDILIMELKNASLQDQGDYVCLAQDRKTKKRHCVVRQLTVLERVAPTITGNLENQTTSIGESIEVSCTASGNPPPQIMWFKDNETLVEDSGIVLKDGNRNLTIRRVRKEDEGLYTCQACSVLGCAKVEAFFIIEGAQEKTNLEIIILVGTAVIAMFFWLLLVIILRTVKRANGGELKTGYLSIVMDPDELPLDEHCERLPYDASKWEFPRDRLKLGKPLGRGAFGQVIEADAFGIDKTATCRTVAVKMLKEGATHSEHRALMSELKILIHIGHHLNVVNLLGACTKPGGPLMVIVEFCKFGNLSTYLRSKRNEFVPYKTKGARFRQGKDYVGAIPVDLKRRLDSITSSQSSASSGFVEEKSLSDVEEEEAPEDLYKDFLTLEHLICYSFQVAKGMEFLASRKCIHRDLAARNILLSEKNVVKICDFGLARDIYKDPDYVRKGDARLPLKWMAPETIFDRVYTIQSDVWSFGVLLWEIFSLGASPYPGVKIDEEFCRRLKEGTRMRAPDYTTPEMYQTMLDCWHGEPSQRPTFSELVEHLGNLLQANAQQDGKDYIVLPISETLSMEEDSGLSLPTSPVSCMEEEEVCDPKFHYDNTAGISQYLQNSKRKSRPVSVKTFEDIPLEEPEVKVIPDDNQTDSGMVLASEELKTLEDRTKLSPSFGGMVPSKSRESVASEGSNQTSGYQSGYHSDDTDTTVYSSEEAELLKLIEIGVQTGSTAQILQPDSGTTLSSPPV
Sequence of Epidermal growth factor receptor (P00533 whole entry): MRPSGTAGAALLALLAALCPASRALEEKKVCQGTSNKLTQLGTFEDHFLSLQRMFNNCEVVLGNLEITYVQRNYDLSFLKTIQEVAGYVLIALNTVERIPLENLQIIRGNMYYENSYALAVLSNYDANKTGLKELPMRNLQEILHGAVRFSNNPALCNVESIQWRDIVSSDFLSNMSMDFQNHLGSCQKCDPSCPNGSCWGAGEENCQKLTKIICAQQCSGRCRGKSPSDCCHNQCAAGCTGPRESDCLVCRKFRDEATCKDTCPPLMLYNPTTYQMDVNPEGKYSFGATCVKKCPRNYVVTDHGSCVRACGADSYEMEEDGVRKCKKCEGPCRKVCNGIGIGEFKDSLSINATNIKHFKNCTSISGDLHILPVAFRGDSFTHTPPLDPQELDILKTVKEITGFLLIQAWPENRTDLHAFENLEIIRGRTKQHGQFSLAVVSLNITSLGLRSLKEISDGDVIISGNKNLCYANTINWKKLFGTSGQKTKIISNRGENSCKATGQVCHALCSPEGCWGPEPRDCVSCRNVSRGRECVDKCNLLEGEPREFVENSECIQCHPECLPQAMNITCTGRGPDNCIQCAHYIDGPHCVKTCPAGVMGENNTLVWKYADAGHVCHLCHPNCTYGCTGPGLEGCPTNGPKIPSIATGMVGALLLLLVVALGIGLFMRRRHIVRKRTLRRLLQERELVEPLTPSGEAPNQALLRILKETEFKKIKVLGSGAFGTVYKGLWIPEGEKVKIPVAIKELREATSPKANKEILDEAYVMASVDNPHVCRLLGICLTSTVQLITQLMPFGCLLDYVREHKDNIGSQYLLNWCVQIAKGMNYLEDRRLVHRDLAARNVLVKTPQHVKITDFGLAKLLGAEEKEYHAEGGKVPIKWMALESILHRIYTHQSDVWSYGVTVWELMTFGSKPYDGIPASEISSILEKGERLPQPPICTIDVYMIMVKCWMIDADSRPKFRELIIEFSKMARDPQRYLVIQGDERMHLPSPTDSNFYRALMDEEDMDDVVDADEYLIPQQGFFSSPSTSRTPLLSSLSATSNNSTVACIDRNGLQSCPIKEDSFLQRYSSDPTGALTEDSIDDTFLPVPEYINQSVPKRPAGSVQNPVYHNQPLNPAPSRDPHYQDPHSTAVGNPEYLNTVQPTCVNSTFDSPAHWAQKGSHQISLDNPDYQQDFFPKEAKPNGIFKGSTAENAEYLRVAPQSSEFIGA
Sequence of Insulin receptor (P06213 28-758 limits assumed): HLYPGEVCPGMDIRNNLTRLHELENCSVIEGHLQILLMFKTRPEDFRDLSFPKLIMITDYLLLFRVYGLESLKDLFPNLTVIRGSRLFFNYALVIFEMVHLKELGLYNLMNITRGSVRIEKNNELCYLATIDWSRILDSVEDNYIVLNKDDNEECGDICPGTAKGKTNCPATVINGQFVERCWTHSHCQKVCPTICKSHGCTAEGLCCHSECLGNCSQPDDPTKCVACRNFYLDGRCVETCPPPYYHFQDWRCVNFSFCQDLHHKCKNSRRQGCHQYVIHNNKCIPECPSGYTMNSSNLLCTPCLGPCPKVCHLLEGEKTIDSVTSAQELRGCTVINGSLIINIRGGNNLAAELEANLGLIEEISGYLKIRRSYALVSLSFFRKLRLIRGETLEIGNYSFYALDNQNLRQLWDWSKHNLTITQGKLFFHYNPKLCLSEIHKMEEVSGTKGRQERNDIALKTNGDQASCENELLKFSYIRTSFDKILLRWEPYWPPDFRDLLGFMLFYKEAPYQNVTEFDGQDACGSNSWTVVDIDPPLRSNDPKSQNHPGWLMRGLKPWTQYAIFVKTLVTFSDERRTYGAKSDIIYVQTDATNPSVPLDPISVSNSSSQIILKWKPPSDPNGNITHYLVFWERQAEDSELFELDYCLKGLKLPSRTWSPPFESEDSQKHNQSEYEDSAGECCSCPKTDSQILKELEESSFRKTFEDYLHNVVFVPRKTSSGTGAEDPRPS
Sequence of Insulin receptor (P06213 763-1382 limits assumed): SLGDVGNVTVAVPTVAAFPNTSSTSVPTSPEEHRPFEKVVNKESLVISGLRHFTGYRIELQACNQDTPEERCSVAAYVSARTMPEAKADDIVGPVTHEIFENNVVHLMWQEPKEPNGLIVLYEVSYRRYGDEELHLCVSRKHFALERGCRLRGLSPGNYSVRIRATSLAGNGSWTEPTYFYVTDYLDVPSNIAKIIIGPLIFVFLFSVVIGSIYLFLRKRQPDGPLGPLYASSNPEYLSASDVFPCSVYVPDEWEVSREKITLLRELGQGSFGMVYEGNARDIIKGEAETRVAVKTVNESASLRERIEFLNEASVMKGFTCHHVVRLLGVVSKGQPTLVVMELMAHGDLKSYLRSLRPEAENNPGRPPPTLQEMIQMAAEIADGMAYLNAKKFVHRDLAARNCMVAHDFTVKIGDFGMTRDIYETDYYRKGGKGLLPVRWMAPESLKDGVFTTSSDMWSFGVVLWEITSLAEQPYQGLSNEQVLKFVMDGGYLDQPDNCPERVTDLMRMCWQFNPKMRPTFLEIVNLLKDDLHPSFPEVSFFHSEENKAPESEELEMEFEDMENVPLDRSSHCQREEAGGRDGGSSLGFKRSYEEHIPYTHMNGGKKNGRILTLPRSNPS

Row | SMILES | IC50 [2] | IC50 (MV4-11 [3]) | IC50 [1] | other results
1 | O=C1Nc2ccccc2/C1=C1/Nc2ccccc2C1=O [INDIRUBIN] | > 10000 nM | > 10000 nM | > 10000 nM | –
2 | CC(=O)N1/C(=C2\C(=O)Nc3ccccc32)C(=O)c2ccccc21 | > 10000 nM | > 10000 nM | > 10000 nM | –
3 | C[C@]12O[C@H](C[C@]1(O)CO)n1c3ccccc3c3c4c(c5c6ccccc6n2c5c31)CNC4=O [LESTAURTINIB] | – | 9 nM | 120 nM | –
4 | O=C1C(c2c(O)[nH]c3ccc(S(=O)(=O)O)cc23)=Nc2ccccc21 | 280 nM | > 10000 nM | > 10000 nM | –
5 | O=C1Nc2ccc(S(=O)(=O)O)cc2/C1=C1/Nc2ccccc2/C1=N\O | 9 nM | > 10000 nM | > 10000 nM | –
6 | Cc1cc(Cl)cc2c1NC(=O)/C2=C1\Nc2ccccc2\C1=N/O | > 10000 nM | > 10000 nM | > 10000 nM | –
7 | O=C1Nc2ccc(OC(F)(F)F)cc2/C1=C1/Nc2ccccc2/C1=N\O | > 10000 nM | > 3550 nM | 3360 nM | –
8 | O=C1C(c2c(O)[nH]c3ccc([N+](=O)[O-])cc23)=Nc2ccccc21 | > 10000 nM | > 10000 nM | > 10000 nM | –
9 | O=C1C(c2c(O)[nH]c3ccc(F)cc23)=Nc2ccccc21 | 10100 nM | > 10000 nM | > 10000 nM | –

Second part, led by results:

Row | IC50 [2] | IC50 (MV4-11 [3]) | SMILES | IC50 [1] | other results
10 | 28 nM | 260 nM | Cc1ccc2c(c1)/C(=C1/Nc3ccccc3/C1=N\O)C(=O)N2 | 8560 nM | –
11 | – | 3360 nM | Nc1ccn([C@@H]2O[C@H](CO)[C@@H](O)[C@@H]2O)c(=O)n1 [CYTARABINE] | 260 nM | –
12 | 4720 nM | 4790 nM | O=C1C(c2c(O)[nH]c3ccc(I)cc23)=Nc2ccccc21 | > 10000 nM | –
13 | 82 nM | 220 nM | O=C1Nc2ccc(Cl)cc2/C1=C1/Nc2ccccc2/C1=N\O | 1580 nM | –
14 | 212 nM | 7000 nM | O=C1C(c2c(O)[nH]c3ccc(Cl)cc23)=Nc2ccccc21 | > 10000 nM | –
15 | 209 nM | 1540 nM | Cc1ccc2[nH]c(O)c(C3=Nc4ccccc4C3=O)c2c1 | > 10000 nM | –
16 | 33 nM | 150 nM | O=Nc1c(-c2c(O)[nH]c3ccccc23)[nH]c2ccccc12 [INDIRUBIN-3-MONOXIME] | 3560 nM | –
17 | 418 nM | 360 nM | O=Nc1c(-c2c(O)[nH]c3ccc(I)cc23)[nH]c2ccccc12 | 1450 nM | –
18 | 62 nM | 450 nM | O=Nc1c(-c2c(O)[nH]c3ccc([N+](=O)[O-])cc23)[nH]c2ccccc12 | 560 nM | –
19 | 359 nM | 4300 nM | Nc1ccc2c(c1)/C(=C1/Nc3ccccc3C1=O)C(=O)N2 | 4670 nM | –
20 | 15 nM | 72 nM | O=C1Nc2ccc(F)cc2/C1=C1/Nc2ccccc2/C1=N\O | 2210 nM | IC50 [4]: 1530 nM; IC50 [5]: > 10000 nM; IC50 [6]: > 10000 nM; IC50 [7]: > 10000 nM; IC50 (Insulin receptor): > 10000 nM; IC50 (Aurora kinase A): 1270 nM; Activity (MV4-11 [8]): 61.62%; Activity (MV4-11 [9]): 11.53%; Activity (MV4-11 [10]): 16.55%; Activity (MV4-11 [11]): 9.24%; Activity (MV4-11 [12]): 58.06%; Activity (MV4-11 [13]): 57.44%; Activity (MV4-11 [14]): 2.91%; Activity (MV4-11 [15]): 6.42%; Activity (MV4-11 [16]): 32.76%; Activity (MV4-11 [17]): 1.05%; Activity (MV4-11 [18]): 2.85%; Activity (MV4-11 [19]): 37.73%
21 | > 10000 nM | > 270 nM | O=C1Nc2ccc([N+](=O)[O-])cc2/C1=C1/Nc2ccc(Br)cc2/C1=N/O | 160 nM | –
22 | 952 nM | 2400 nM | Cc1cc(C)c2c(c1)/C(=C1/Nc3ccccc3/C1=N\O)C(=O)N2 | > 10000 nM | –
23 | 128 nM | 1650 nM | Nc1ccc2c(c1)/C(=C1/Nc3ccccc3/C1=N\O)C(=O)N2 | 3340 nM | –
